The results in this text go back to US5710145A, “Protein kinase C inhibitor” (priority 1996, dated 1998).

Data set [1] is described as follows: Thermogravimetric analysis (TGA) of salts. The format is physicochemical. To be noted: for TGA weight loss 20-100° C.: heated 20-100° C.; for TGA weight loss 100-200° C.: heated 100-200° C. How it is done: Each salt was analyzed by TGA, DSC and Mettler hot stage microscopy and compared (Table III). […] The samples were also examined by hot stage microscopy using a Mettler hot stage.

Data set [2] can be described thus: Hygroscopicity of salts at relative humidities. The format is physicochemical. The following applies: for Hygroscopicity, RH 27%: 27% RH; for Hygroscopicity, RH 35%: 35% RH; for Hygroscopicity, RH 65%: 65% RH; for Hygroscopicity, RH 80%: 80% RH. The method, then: (§1) The salts were examined for hygroscopicity at relative humidities (RH) of 27%, 35%, 65% and 80% and are depicted in Table IV. The samples were subjected to vacuum initially to establish a reference point for the RH data. The amount of water contained in each salt was also determined by Karl-Fisher (coulometric).

The nature of another data set: physchem. The format is physicochemical. To be noted: for pH (saturated aq Solution): saturated aqueous solution. How it is done: The aqueous solubility of each salt was determined by UV analysis (Table II) and compared. […] The high pH observed with the succinate and acetate salt indicated the presence of untitrated free base.
Data set [3] in a line: Karl-Fisher (coulometric) water content of salts. In kind it is physicochemical. How it is done: as §1
A short description of data set [4]: Oral bioavailability of HCl and mesylate salts in dogs, single 20 mg/kg dose, cross-over. In kind it is in vivo, Male Beagle Dogs. The method, then: Because the hydrochloride salt is the most common pharmaceutical salt and is specifically disclosed in Heath et al., EP 0 657 458, published on Jun. 14, 1995 (Example 5), a biological comparison of the mesylate and HCl salt was carried out. […] The bioavailability of the salt forms was measured in four Male Beagle Dogs by orally administering a single 20 mg/kg dose of the HCl and the claimed mesylate salt in a 10% acacia suspension. One week washout period was allowed between doses. Doses were administered in a cross-over design (2 dogs/salt/study dog). The plasma concentration of the active compound as well as an active metabolite was monitored. […] This represents an approximately 260% increase in plasma concentration of the compound and the metabolite.
The plasma concentration of the compound as well as the metabolite was also plotted as a function of time during the study. The ratio of the area under the concentration curve (AUC) represents a measure of bioavailability of the compound to the patient. The AUC ratio for the HCl salt and the claimed mesylate was calculated and is depicted in Table VI.

The next data set has as its target Protein Kinase C. In words: Protein kinase C inhibitor activity / selectivity (Calcium Calmodulin Dependent Protein Kinase, Casein Protein Kinase II, cAMP-Dependent Protein Kinase Catalytic Subunit and Protein-Tyrosine Kinase assays). The format is biochemical. How it is done: As previously stated, the compound of the present invention are active as selective Protein Kinase C inhibitors. The activity of compound is disclosed in Heath et al., EP 0 657 458, published on Jun. 14, 1995. The activity was determined in the Calcium Calmodulin Dependent Protein Kinase Assay, Casein Protein Kinase II assay, cAMP-Dependent Protein Kinase Catalytic Subunit assay and the Protein-Tyrosine Kinase assay. […] Conditions recognized in the art include: diabetes mellitus and its complications (including retinopathy, neuropathy and nephropathy), ischemia, inflammation, central nervous system disorders, cardiovascular disease, Alzheimer's disease, dermatological disease and cancer.

The structures appear in SMILES notation. Counter-ions that a name gives are not always drawn.

Regarding `CN(C)C[C@@H]1CCn2cc(c3ccccc32)C2=C(C(=O)NC2=O)c2cn(c3ccccc23)CCO1` [HCl], in data set [1], the “TGA weight loss 20-100° C.” value stood at 1.42 % wt loss and the “TGA weight loss 100-200° C.” value is on record as 0.9 % wt loss. Besides, in data set [2], the “Hygroscopicity, RH 27%” value is 98.2 wt % initial; the “Hygroscopicity, RH 35%” value came to 99.3 wt % initial; the “Hygroscopicity, RH 65%” value is given as 100.4 wt % initial; the “Hygroscopicity, RH 80%” value was 100.6 wt % initial. Besides, the “Hygroscopicity, Vacuum” value in data set [2] was 98.7 wt % initial. The “pH (saturated aq Solution)” value in the data set “physchem” stood at 4.98. For the same compound, in “physchem” (water), the “Aqueous solubility (base)” value was determined as 249 μg base/mL H2 O and the aqueous solubility (usually the dissolved amount per volume that the medium holds) was 268 µg/mL. Also, the “K. F. (Karl-Fisher water)” value in data set [3] was 1.3%.

As for `CN(C)C[C@@H]1CCn2cc(c3ccccc32)C2=C(C(=O)NC2=O)c2cn(c3ccccc23)CCO1` [Tartrate], in data set [1], the “TGA weight loss 20-100° C.” value stood at 5.50 % wt loss. For the same compound, in data set [1] (listed as tartrate), the “TGA weight loss 20-100° C.” value was determined as 5.50 % wt loss. In data set [2], the “Hygroscopicity, RH 27%” value was found to be 98.2 wt % initial; the “Hygroscopicity, RH 35%” value is 101.3 wt % initial; the “Hygroscopicity, RH 65%” value was determined as 103.8 wt % initial; the “Hygroscopicity, RH 80%” value was 105.4 wt % initial. The “Hygroscopicity, Vacuum” value in data set [2] worked out at 97.9 wt % initial. Also, in the data set “physchem”, the “pH (saturated aq Solution)” value is 3.77. For the same compound, in the data set “physchem” (water), the “Aqueous solubility (base)” value turned out to be 54 μg base/mL H2 O and the “Aqueous solubility (salt)” value is listed as 71 μg salt/mL H2 O. Also, in data set [3], the “K. F. (Karl-Fisher water)” value worked out at 5.1%.

In the case of `CN(C)C[C@@H]1CCn2cc(c3ccccc32)C2=C(C(=O)NC2=O)c2cn(c3ccccc23)CCO1` [Mesylate, (S)-13-[(dimethylamino)methyl]-10,11,14,15-tetrahydro-4,9:16,21-dimetheno-1H, 13H-dibenzo[E,K]pyrrolo[3,4-H][1,4,13]oxadiazacyclohexadecine-1,3(2H)-dione], the “increase in plasma concentration of the compound and the metabolite” value in data set [4] (dog, in vivo, po, 20 mg/kg) was “approximately 260%”. Moreover, in data set [4] (each dog, equivalent oral dose), the “plasma concentrations of compound and metabolite vs HCl salt” value is “Higher plasma concentrations”. Further, the “TGA weight loss 20-100° C.” value in data set [1] turned out to be 3.97 % wt loss. Besides, in data set [2], the “Hygroscopicity, RH 27%” value was 98.5 wt % initial; the “Hygroscopicity, RH 35%” value stood at 99.4 wt % initial; the “Hygroscopicity, RH 65%” value worked out at 100.7 wt % initial; the “Hygroscopicity, RH 80%” value amounted to 104.4 wt % initial. The “Hygroscopicity, Vacuum” value in data set [2] worked out at 99.0 wt % initial. On Protein Kinase C, the half-inhibitory concentration (IC50) (in general, the midpoint of a concentration-inhibition curve) was < 10 µM; the “activity and isozyme selectivity” value is “active and isozyme selective”. Besides, in the data set “physchem”, the “effect of chloride on aqueous solubility” value is given as “drops markedly with the addition of chloride”, the “effect of pH on aqueous solubility” value is listed as “drops markedly at either higher or lower pH”, the “pH of optimal aqueous solubility” value is reported as 4.0 to 5.0 pH and the “pH (saturated aq Solution)” value was determined as 4.69. Besides, in the data set “physchem” (water), the “Aqueous solubility (base)” value turned out to be 1460 μg base/mL H2 O and the aqueous solubility turned out to be 1760 µg/mL. The solubility (usually how much of the substance goes into solution per volume) in the data set “physchem” (water, pH 4.5, water, aqueous solubility at most preferred pH) worked out at 2250 µg/mL. The “K. F. (Karl-Fisher water)” value in data set [3] stood at 3.6%.

For `CN(C)C[C@@H]1CCn2cc(c3ccccc32)C2=C(C(=O)NC2=O)c2cn(c3ccccc23)CCO1` [Phosphate], the “TGA weight loss 20-100° C.” value in data set [1] came to 5.50 % wt loss. The “TGA weight loss 20-100° C.” value in data set [1] (listed as phosphate) was 5.50 % wt loss. Besides, in data set [2], the “Hygroscopicity, RH 27%” value is 98.6 wt % initial; the “Hygroscopicity, RH 35%” value amounted to 102.6 wt % initial; the “Hygroscopicity, RH 65%” value came out at 105.5 wt % initial; the “Hygroscopicity, RH 80%” value amounted to 106.6 wt % initial. Further, the “Hygroscopicity, Vacuum” value in data set [2] was 98.2 wt % initial. In data set [2] (vacuum to 80% RH), the hygroscopicity ranking entry is recorded as “most hygroscopic”. Also, the “pH (saturated aq Solution)” value in “physchem” is on record as 3.78. In “physchem” (water), the “Aqueous solubility (base)” value was 609 μg base/mL H2 O and the “Aqueous solubility (salt)” value is 736 μg salt/mL H2 O. The “K. F. (Karl-Fisher water)” value in data set [3] was found to be 4.6%.

As to `CN(C)C[C@@H]1CCn2cc(c3ccccc32)C2=C(C(=O)NC2=O)c2cn(c3ccccc23)CCO1` [Acetate], in data set [1], the “TGA weight loss 20-100° C.” value turned out to be 0.77 % wt loss and the “TGA weight loss 100-200° C.” value is 1.44 % wt loss. In addition, in data set [2], the “Hygroscopicity, RH 27%” value is 98.6 wt % initial; the “Hygroscopicity, RH 35%” value was determined as 99.2 wt % initial; the “Hygroscopicity, RH 65%” value came out at 100.2 wt % initial; the “Hygroscopicity, RH 80%” value is recorded as 100.6 wt % initial. For the same compound, the “Hygroscopicity, Vacuum” value in data set [2] stood at 99.4 wt % initial. Besides, in the data set “physchem”, the “pH (saturated aq Solution)” value is given as 7.80. Also, in “physchem” (water), the “Aqueous solubility (base)” value is 0.9 μg base/mL H2 O and the “Aqueous solubility (salt)” value came to 1 μg salt/mL H2 O. For the same compound, the “K. F. (Karl-Fisher water)” value in data set [3] turned out to be 0.3%.

Take `CN(C)C[C@@H]1CCn2cc(c3ccccc32)C2=C(C(=O)NC2=O)c2cn(c3ccccc23)CCO1` [Sulfate]: the “TGA weight loss 20-100° C.” value in data set [1] is on record as 5.50 % wt loss. The “TGA weight loss 20-100° C.” value in data set [1] (listed as sulfate) is recorded as 5.50 % wt loss. In data set [2], the “Hygroscopicity, RH 27%” value was determined as 98.4 wt % initial; the “Hygroscopicity, RH 35%” value turned out to be 99.8 wt % initial; the “Hygroscopicity, RH 65%” value was found to be 100.9 wt % initial; the “Hygroscopicity, RH 80%” value was 101.9 wt % initial. The “Hygroscopicity, Vacuum” value in data set [2] worked out at 98.9 wt % initial. In the data set “physchem”, the “pH (saturated aq Solution)” value is 2.57. For the same compound, in the data set “physchem” (water), the “Aqueous solubility (base)” value worked out at 12 μg base/mL H2 O and the “Aqueous solubility (salt)” value is listed as 14 μg salt/mL H2 O. Moreover, the “K. F. (Karl-Fisher water)” value in data set [3] is recorded as 4.9%.

On to `CN(C)C[C@@H]1CCn2cc(c3ccccc32)C2=C(C(=O)NC2=O)c2cn(c3ccccc23)CCO1` [Succinate], for which, in data set [1], the “TGA weight loss 20-100° C.” value came to 0.73 % wt loss and the “TGA weight loss 100-200° C.” value worked out at 1.90 % wt loss. For the same compound, in data set [2], the “Hygroscopicity, RH 27%” value is on record as 98.5 wt % initial; the “Hygroscopicity, RH 35%” value is 99.1 wt % initial; the “Hygroscopicity, RH 65%” value came to 100.0 wt % initial; the “Hygroscopicity, RH 80%” value is 100.5 wt % initial. Moreover, the “Hygroscopicity, Vacuum” value in data set [2] is listed as 99.3 wt % initial. In addition, in “physchem”, the “pH (saturated aq Solution)” value came to 7.72. Also, in “physchem” (water), the “Aqueous solubility (base)” value stood at 0.4 μg base/mL H2 O and the “Aqueous solubility (salt)” value was 0.5 μg salt/mL H2 O. Also, the “K. F. (Karl-Fisher water)” value in data set [3] was 0.2%.
